From the NIST ThermoML archive (doi:10.1021/je200922s)
± gives the expanded uncertainty stated by the source.

Assay: xn = mol fraction of the nth substance listed
Details: 101 kPa, Liquid; for viscosity: Capillary tube (Ostwald / Ubbelohde) method; for mass density: Vibrating tube method

CCn1cc[n+](C)c1.O=S(=O)([N-]S(=O)(=O)C(F)(F)F)C(F)(F)F + CN1CCCC1=O
Details	mass density [kg/m3]	viscosity [mPa·s]
293.15 K, x1 = 0.0978	1144.09 ± 0.36	3.344 ± 0.14
293.15 K, x1 = 0.1979	1228.99 ± 0.45	5.561 ± 0.23
293.15 K, x1 = 0.2957	1292.83 ± 0.51	8.637 ± 0.35
293.15 K, x1 = 0.395	1344.49 ± 0.56	12.04 ± 0.49
293.15 K, x1 = 0.493	1386.31 ± 0.59	15.84 ± 0.65
293.15 K, x1 = 0.5893	1420.55 ± 0.61	20.06 ± 0.82
293.15 K, x1 = 0.6917	1451.44 ± 0.63	24.72 ± 1
293.15 K, x1 = 0.798	1478.94 ± 0.65	29.72 ± 1.2
293.15 K, x1 = 0.9002	1502.24 ± 0.67	34.93 ± 1.4
298.15 K, x1 = 0.0978	1139.45 ± 0.35	3.026 ± 0.12
298.15 K, x1 = 0.1979	1224.19 ± 0.44	4.943 ± 0.2
298.15 K, x1 = 0.2957	1287.87 ± 0.5	7.604 ± 0.31
298.15 K, x1 = 0.395	1339.44 ± 0.55	10.45 ± 0.43
298.15 K, x1 = 0.493	1381.19 ± 0.59	13.6 ± 0.56
298.15 K, x1 = 0.5893	1415.41 ± 0.6	17.07 ± 0.7
298.15 K, x1 = 0.6917	1446.29 ± 0.62	20.87 ± 0.86
298.15 K, x1 = 0.798	1473.78 ± 0.65	24.7 ± 1
298.15 K, x1 = 0.9002	1497.09 ± 0.67	28.7 ± 1.2
303.15 K, x1 = 0.0978	1134.72 ± 0.35	2.754 ± 0.11
303.15 K, x1 = 0.1979	1219.33 ± 0.44	4.457 ± 0.18
303.15 K, x1 = 0.2957	1282.91 ± 0.5	6.749 ± 0.28
303.15 K, x1 = 0.395	1334.42 ± 0.55	9.159 ± 0.37
303.15 K, x1 = 0.493	1376.09 ± 0.58	11.82 ± 0.48
303.15 K, x1 = 0.5893	1410.27 ± 0.6	14.7 ± 0.6
303.15 K, x1 = 0.6917	1441.15 ± 0.62	17.85 ± 0.73
303.15 K, x1 = 0.798	1468.63 ± 0.64	21.05 ± 0.86
303.15 K, x1 = 0.9002	1491.96 ± 0.66	24.29 ± 1
308.15 K, x1 = 0.0978	1130.03 ± 0.34	2.519 ± 0.1
308.15 K, x1 = 0.1979	1214.47 ± 0.43	4.028 ± 0.16
308.15 K, x1 = 0.2957	1277.97 ± 0.49	6.033 ± 0.25
308.15 K, x1 = 0.395	1329.38 ± 0.54	8.092 ± 0.33
308.15 K, x1 = 0.493	1371 ± 0.58	10.37 ± 0.42
308.15 K, x1 = 0.5893	1405.15 ± 0.59	12.81 ± 0.52
308.15 K, x1 = 0.6917	1436.01 ± 0.61	15.44 ± 0.63
308.15 K, x1 = 0.798	1463.48 ± 0.64	18.24 ± 0.75
308.15 K, x1 = 0.9002	1486.83 ± 0.66	20.83 ± 0.85
313.15 K, x1 = 0.0978	1125.31 ± 0.34	2.314 ± 0.094
313.15 K, x1 = 0.1979	1209.6 ± 0.43	3.647 ± 0.15
313.15 K, x1 = 0.2957	1272.99 ± 0.49	5.43 ± 0.22
313.15 K, x1 = 0.395	1324.28 ± 0.54	7.19 ± 0.29
313.15 K, x1 = 0.493	1365.88 ± 0.58	9.174 ± 0.38
313.15 K, x1 = 0.5893	1399.96 ± 0.59	11.26 ± 0.46
313.15 K, x1 = 0.6917	1430.83 ± 0.61	13.44 ± 0.55
313.15 K, x1 = 0.798	1458.28 ± 0.63	15.76 ± 0.64
313.15 K, x1 = 0.9002	1481.67 ± 0.65	18.12 ± 0.74
318.15 K, x1 = 0.0978	1120.61 ± 0.34	2.13 ± 0.087
318.15 K, x1 = 0.1979	1204.73 ± 0.42	3.325 ± 0.14
318.15 K, x1 = 0.2957	1268 ± 0.48	4.916 ± 0.2
318.15 K, x1 = 0.395	1319.23 ± 0.53	6.44 ± 0.26
318.15 K, x1 = 0.493	1360.77 ± 0.57	8.18 ± 0.33
318.15 K, x1 = 0.5893	1394.81 ± 0.58	9.989 ± 0.41
318.15 K, x1 = 0.6917	1425.65 ± 0.6	11.83 ± 0.48
318.15 K, x1 = 0.798	1453.09 ± 0.63	13.78 ± 0.56
318.15 K, x1 = 0.9002	1476.54 ± 0.65	15.79 ± 0.65
323.15 K, x1 = 0.0978	1115.91 ± 0.33	1.98 ± 0.081
323.15 K, x1 = 0.1979	1199.83 ± 0.42	3.079 ± 0.12
323.15 K, x1 = 0.2957	1262.96 ± 0.48	4.481 ± 0.18
323.15 K, x1 = 0.395	1314.12 ± 0.53	5.816 ± 0.24
323.15 K, x1 = 0.493	1355.62 ± 0.57	7.344 ± 0.3
323.15 K, x1 = 0.5893	1389.73 ± 0.58	8.911 ± 0.36
323.15 K, x1 = 0.6917	1420.58 ± 0.6	10.51 ± 0.43
323.15 K, x1 = 0.798	1448.03 ± 0.62	12.31 ± 0.5
323.15 K, x1 = 0.9002	1471.41 ± 0.64	13.95 ± 0.57

CCn1cc[n+](C)c1.O=S(=O)([N-]S(=O)(=O)C(F)(F)F)C(F)(F)F + CCO
Details	mass density [kg/m3]	viscosity [mPa·s]
293.15 K, x1 = 0.1008	1038.4 ± 0.3	1.612 ± 0.065
293.15 K, x1 = 0.1971	1179.41 ± 0.3	2.78 ± 0.12
293.15 K, x1 = 0.3	1276.68 ± 0.26	4.6 ± 0.19
293.15 K, x1 = 0.3992	1341.77 ± 0.28	7.429 ± 0.3
293.15 K, x1 = 0.5014	1391.85 ± 0.33	10.65 ± 0.43
293.15 K, x1 = 0.5955	1427.56 ± 0.39	13.87 ± 0.57
293.15 K, x1 = 0.6966	1458.64 ± 0.46	17.76 ± 0.72
293.15 K, x1 = 0.7982	1484.18 ± 0.53	21.8 ± 0.9
293.15 K, x1 = 0.9041	1506.32 ± 0.61	28.74 ± 1.2
298.15 K, x1 = 0.1008	1034.14 ± 0.3	1.478 ± 0.06
298.15 K, x1 = 0.1971	1175.21 ± 0.28	2.35 ± 0.096
298.15 K, x1 = 0.3	1272.19 ± 0.26	4.15 ± 0.17
298.15 K, x1 = 0.3992	1337.18 ± 0.28	6.479 ± 0.26
298.15 K, x1 = 0.5014	1387.12 ± 0.33	9.232 ± 0.38
298.15 K, x1 = 0.5955	1422.72 ± 0.39	12.05 ± 0.49
298.15 K, x1 = 0.6966	1453.69 ± 0.45	15.18 ± 0.62
298.15 K, x1 = 0.7982	1479.17 ± 0.53	18.7 ± 0.76
298.15 K, x1 = 0.9041	1501.31 ± 0.61	24.52 ± 1
303.15 K, x1 = 0.1008	1029.79 ± 0.3	1.25 ± 0.051
303.15 K, x1 = 0.1971	1170.59 ± 0.28	2.16 ± 0.088
303.15 K, x1 = 0.3	1267.5 ± 0.26	3.728 ± 0.15
303.15 K, x1 = 0.3992	1332.39 ± 0.28	5.697 ± 0.23
303.15 K, x1 = 0.5014	1382.49 ± 0.33	8.1 ± 0.33
303.15 K, x1 = 0.5955	1417.99 ± 0.38	10.31 ± 0.42
303.15 K, x1 = 0.6966	1448.78 ± 0.45	13.13 ± 0.54
303.15 K, x1 = 0.7982	1474.28 ± 0.52	16.12 ± 0.66
303.15 K, x1 = 0.9041	1496.34 ± 0.6	20.9 ± 0.86
308.15 K, x1 = 0.1008	1025.12 ± 0.3	1.12 ± 0.045
308.15 K, x1 = 0.1971	1166.55 ± 0.27	1.9 ± 0.077
308.15 K, x1 = 0.3	1263.4 ± 0.26	3.157 ± 0.13
308.15 K, x1 = 0.3992	1327.88 ± 0.28	5.055 ± 0.21
308.15 K, x1 = 0.5014	1377.68 ± 0.33	7.177 ± 0.29
308.15 K, x1 = 0.5955	1413.41 ± 0.38	9.109 ± 0.37
308.15 K, x1 = 0.6966	1443.98 ± 0.45	11.47 ± 0.47
308.15 K, x1 = 0.7982	1469.4 ± 0.52	14.04 ± 0.57
308.15 K, x1 = 0.9041	1491.39 ± 0.6	18.05 ± 0.74
313.15 K, x1 = 0.1008	1021.47 ± 0.3	1.101 ± 0.045
313.15 K, x1 = 0.1971	1162.51 ± 0.27	1.645 ± 0.067
313.15 K, x1 = 0.3	1259.31 ± 0.25	2.64 ± 0.11
313.15 K, x1 = 0.3992	1323.62 ± 0.28	4.404 ± 0.18
313.15 K, x1 = 0.5014	1372.99 ± 0.33	6.199 ± 0.25
313.15 K, x1 = 0.5955	1408.57 ± 0.38	7.954 ± 0.32
313.15 K, x1 = 0.6966	1439.3 ± 0.44	10.01 ± 0.41
313.15 K, x1 = 0.7982	1464.39 ± 0.51	12.34 ± 0.5
313.15 K, x1 = 0.9041	1486.41 ± 0.6	15.74 ± 0.64
318.15 K, x1 = 0.1008	1019.1 ± 0.3	1.001 ± 0.041
318.15 K, x1 = 0.1971	1159.51 ± 0.27	1.412 ± 0.057
318.15 K, x1 = 0.3	1255.23 ± 0.25	2.459 ± 0.1
318.15 K, x1 = 0.3992	1319.8 ± 0.28	3.945 ± 0.16
318.15 K, x1 = 0.5014	1368.71 ± 0.32	5.603 ± 0.23
318.15 K, x1 = 0.5955	1404 ± 0.38	7.141 ± 0.29
318.15 K, x1 = 0.6966	1434.53 ± 0.44	8.965 ± 0.36
318.15 K, x1 = 0.7982	1459.6 ± 0.51	10.93 ± 0.44
318.15 K, x1 = 0.9041	1481.54 ± 0.59	13.84 ± 0.56
323.15 K, x1 = 0.1008	1015.54 ± 0.3	0.987 ± 0.04
323.15 K, x1 = 0.1971	1156.54 ± 0.33	1.307 ± 0.053
323.15 K, x1 = 0.3	1252.11 ± 0.27	2.317 ± 0.094
323.15 K, x1 = 0.3992	1316.24 ± 0.28	3.656 ± 0.15
323.15 K, x1 = 0.5014	1364.61 ± 0.33	5.195 ± 0.21
323.15 K, x1 = 0.5955	1399.5 ± 0.38	6.5 ± 0.26
323.15 K, x1 = 0.6966	1429.97 ± 0.44	8.116 ± 0.33
323.15 K, x1 = 0.7982	1454.97 ± 0.51	9.799 ± 0.4
323.15 K, x1 = 0.9041	1476.73 ± 0.59	12.28 ± 0.5
